These results are taken from US20090239285A1, “TANDEM REAPEAT DNA CONSTRUCTS PRODUCING PROTEINS THAT ATTACK PLANT PATHOGENIC VIRUSES, FUNGI, AND BACTERIA BY DISRUPTING TRANSCRIPTION FACTORS ESSENTIAL FOR REPLICATION THEREOF IN PLANTS” (priority 2008, published 2009).

One series relates to mammalian retroviruses. Particulars: millimolar concentrations, in vitro; cited from earlier work.
The subject of the next series is Mammalian rotaviruses. The note with it: millimolar concentrations, in vitro; cited from earlier work.
Series [1] has as its target T1, Zn(HIV1-F1) zinc finger peptide (N-terminal CCHC region of the HIV-LA1 gag polyprotein) (Human immunodeficiency virus type 1 group M subtype B, UniProt P03348).
T1 construct: corresponds to the N-terminal CCHC region of the HIV-LA1 gag polyprotein (amino acids 390-470); made in house; host or cells: chemical synthesis (synthetic peptide)
Description: NMR studies of ligand binding by a zinc finger peptide from HIV-1. The note with it: for binding to Zn(HIV1-F1): NMR spectroscopy, titration and NOESY. An excerpt:
The interaction between two of the ligands of this invention (Fusaric acid and picolinic acid) and their binding by a Zinc Finger Peptide from HIV-1 containing a zinc finger motif were studied by NMR spectroscopy (FIGS. 16, and 16.1-4).
The peptide sequence […], corresponds to the N-terminal CCHC region of the HIV-LA1 gag polyprotein (amino acids 390-470). The peptide containing the complex of zinc atom bound to the zinc finger domain of the peptide was named: Zn (HIV1-F1).
A synthetic oligonucleotide with sequence corresponding to a region of HIV-1 psi-packaging signal, d (ACGCC) was complexed with the peptide (South and Summers, 1993).Fusaric Acid [[…]] was denoted FSR-488 and picolinic acid [2-pyridine carboxylic acid] was denoted PCL-016. Interactions of FSR-488 and PCL-016 with the zinc finger peptide containing Zn [Zn(HIV1-F1)] were studied by NMR spectroscopy. […] Titration experiments with each of the two molecules caused shifts in the ^1H resonances of Zn(HIV1-F1) that are similar to those observed when the peptide binds analogs of its natural substrate. Two dimensional NOE correlation spectroscopy (NOESY) of the solution containing Zn(HIV1-F1) and FSR-488 gave cross peaks at frequencies that are consistent with contacts between FSR-488 and hydrogen nuclei in the hydrophobic cleft of the peptide.
A sample containing peptide (1.63 mM) and Zn^2+ (2 mM) was titrated with a solution of FSR-488. The experiment was monitored by one dimensional ^1H NMR spectroscopy. Under conditions in which the free zinc in the buffer was minimized, titrations with FSR-488 were conducted. Addition of FSR-488 yielded spectral shifts in the spectrum of the peptide (FIGS. 16, and 16.1-4). […] This experimental finding and conclusions led the inventors to run a second 2D NOESY experiment, this time at the higher concentration of FSR-488.
The NOESY spectrum at the high concentration of [FSR-488]. was considerable different than that measured at low concentrations of [FSR-488]. […] Interpretations for these assignments are presented in detailed below.

The next series has as its target T2, recombinant MPS-1 (Homo sapiens, UniProt P42677).
T2 construct: made in house
In words: Gel shift assay and radioactive Zn65 release from recombinant MPS-1. In kind it is biochemical. Particulars: for zinc dependent binding of recombinant MPS-1 to DNA: gel shift assays. The source says: MPS-1 is a ubiquitous tumor marker and cell growth stimulator and is described in detail in the inventors' U.S. Pat. No. 5,243,041. MPS-1 has one zinc finger domain of the type CCCC. […] This is detected by a change in the electrophoretic mobility of MPS-1 under non-denaturing conditions. These experiments indicate that picolinic acid and derivatives should remove zinc and denature various types of zinc finger, zinc ring proteins, or other types of ZF motifs whether known or heretofore undiscovered, including animal or plant viral proteins such as nucleocapsid proteins of retrovirus or the nucleocapsid proteins of Geminivirus. Furthermore, the inventors have determined that any chemical compound, whether known or heretofore undiscovered, that will remove the zinc (or other metal) and denature the proteins or that will form a ternary complex (protein-zinc-chelator) can be effective as an antiviral agent, with nontoxic effects, provided that the agent conforms with certain specific structural requirements.
A general note: Mobility shift assays separate free from complexed probe on a gel.

In series [2] the test system is virus-infected host cells (HSV-1, HSV-2, HIV-1, Hepatitis C). Description: Fate of virus-infected host cells after treatment. In kind it is cell-based. Particulars: for fate of virus and host cells: HIV-1, Hepatitis C and numerous other viruses. An excerpt: Because DnaJ proteins are zinc finger proteins, these proteins can be neutralized and render non-functional by using picolinic acid and derivatives thereof. DnaJ is essential for protein-related cellular functions in both non-infected normal plant and animal cells. […] In contrast, in virally infected cells, picolinic acid and derivatives thereof have pronounced toxic effects which may include suppression of DnaJ proteins. Virally infected cells were killed by picolinic acid and derivatives thereof by apoptosis. In plant cells, this process is denoted as PCD.
APOPTOSIS. Apoptosis is a morphological pattern of cell injury and an important mode of cell death (Robbins, Pathological Basis of Disease, 1999, 6th Ed). Apoptosis shares and overlaps common mechanisms with necrosis. […] This form of cell death is designed to eliminate defective, unwanted and damaged cells. For example, the inventors have shown that cells infected by Herpes Simplex Virus 1 (HSV; labialis) and HSV-2 genitalis are destroyed together with the host cells that they infected by apoptosis when exposed to pyridine carboxylates (Fernandez-Pol, Anticancer Res. 2002). […] Thus, the inventors believes that when host cells of animals or plants are infected by pathogenic viruses, unless the treatment is extremely quickly, the host cells and the virus will be destroyed. In fact, host cells defective, mutated, and reservoirs for the novo synthesis of viruses are unwanted host cells and must be eliminated in many instances to allow the survival of the organism.

A further series concerns HSV-1. The note with it: in tissue culture and in animals; cited from earlier work.
Another series has as its system HSV-2. Particulars: in tissue culture and in animals; cited from earlier work.
In the next series the test system is Orobanche ramose. Particulars: Arabidopsis thaliana pre-treated with FU; cited from earlier work.
Series [3] concerns Arabidopsis thaliana. The note with it: in vivo; cited from earlier work.
Series [4] deals with Common ornamental plant cells infected by viruses. In words: Treatment of virus-infected ornamental plants with antiviral agents. The note with it: viral strains not determined.
Series [5] has as its system virally-transformed cells. The note with it: further incubation / longer exposure, all transformed cells; cited from earlier work.
The subject of a further series is NRK cells. The note with it: cells treated with picolinic acid; cited from earlier work.
The test system of series [6] is SV40 transformed BALB-3T3 cells. Particulars: cited from earlier work.
In series [7] the test system is Rice suspension cells and leaves. The note with it: cited from earlier work; for hypersensitive response (HR): rice.
Series [8] has as its system Arabidopsis thaliana. Particulars: cited from earlier work.
For series [9], the system named is iron incorporation into cells. Particulars: cited from earlier work.
The subject of series [10] is normal cells (NRK, BALB 3T3, WI-348). Particulars: cited from earlier work.
For series [11] the test system is unchanged. Description: Control of growth by picolinic acid in normal cells. Particulars: normal animal cells.
Description: Cells transformed (made cancerous) by different viruses that contain ZFP respond differently to picolinic acid. […] Numerous transformed cell lines (Fernandez-Pol, Proc. Natl. Acad. Sci. USA, 74:2889-2893, 1977) were exposed to PA and the points of arrest varied. […] Two important facts emerged from studies with transformed cell lines.
The test system of series [12] is tomato spotted wilt virus. The note with it: cited from earlier work.

“Also recorded” adds a separate entry of the source. Like-named read-outs stand apart in the source and are kept apart here.

Take `O=C(O)CN(CCN(CC(=O)O)CC(=O)O)CC(=O)O` [EDTA]: the “viral integrity, measured by release of reverse transcriptase” value in the series on mammalian retroviruses is “partial disintegration of viral membranes”. In addition, the viral integrity entry in the series on Mammalian rotaviruses was “partial disintegration of the viral membranes”.

For the compound `CCCCc1ccc(C(=O)O)nc1` [Fusaric acid, 5-butyl picolinic acid], in series [1], the “binding to Zn(HIV1-F1)” value is reported as “bind Zn(HIV1-F1) at a hydrophobic cleft”. The “binding in one dimensional 1H NMR titration” value in series [1] (peptide 1.63 mM, Zn2+ 2 mM, free zinc minimized) was “competitively binds both Zn^2+ and the Zn^2+/Peptide complex”. Also, on recombinant MPS-1, the “removal of zinc from CCCC zinc finger of MPS-1” value is “remove radioactive Zn65; also recorded: remove zinc” and the “zinc dependent binding of recombinant MPS-1 to DNA” value is recorded as “inhibit”. Moreover, the “fate of virus and host cells” value in series [2] is recorded as “Death by apoptosis”. Also, the “efficacy against viral infection” value with HSV-1 is reported as “effective”. Further, the “efficacy against viral infection” value in the series on HSV-2 is reported as “effective”. For the same compound, the germination of parasite entry with Orobanche ramose is “inhibited”. Also, in the series on Arabidopsis thaliana [3], the “concentration eliciting plant defense responses without toxic effects” value is 100 nM; the “concentration reducing root growth and inducing membrane hyperpolarization then depolarization” value was over 500 µM. Also, in series [4], the “outcome of treatment of virus-infected ornamental plants” value is on record as “positive results”.

For `O=C(O)c1ccccn1` [Picolinic acid, 2-pyridine carboxylic acid], in [1], the “binding to Zn(HIV1-F1)” value is “bind Zn(HIV1-F1) at a hydrophobic cleft”. Besides, on recombinant MPS-1, the “removal of zinc from CCCC zinc finger of MPS-1” value is given as “remove radioactive Zn65; also recorded: remove zinc” and the “zinc dependent binding of recombinant MPS-1 to DNA” value was “inhibit”. For the same compound, the “fate of virus and host cells” value in series [2] is on record as “Death by apoptosis”. Moreover, the “fate of virally infected cells” value in [2] (virally infected cells) is on record as “killed”. Moreover, the “toxicity in transformed cells” value in series [5] was “cytotoxicity and cell death; also recorded: cell death by apoptosis”. The “potency of prostaglandin E1 in elevating cyclic AMP” value in the series with NRK cells is “two to five times more potent”. Moreover, the mitochondrial effect entry in [6] (3 mM picolinic acid) was “released cytochrome c”. In series [7] (Rice suspension cells and leaves), the cell death result is “apoptosis”. Moreover, the “reactive oxygen species (ROS)” value in series [7] (rice suspension cells, Ca2+-dependent) is “induced reactive oxygen species (ROS)”. In addition, in series [7], the “hypersensitive response (HR)” value was “elicits hypersensitive-like response”. Further, the “hypersensitive response (HR)” value in [7] (listed as Alpha-picolinic acid) is reported as “can elicit the hypersensitive response (HR)”. For the same compound, the “marker defense genes PR-1, PR-2 and PDF1.2” value with Arabidopsis thaliana [8] (dose-dependent and time dependent) was “all induced”. The “hypersensitive response (HR)” value in the series with Arabidopsis thaliana [8] (including oxidative burst and cell death) is listed as “induced HR”. Moreover, in series [9], the “incorporation of iron into the cells” value was “inhibits incorporation of iron” and the “removal of radioiron from the cells” value is recorded as “effectively removes radioiron”. Moreover, the “phase of cell cycle arrest” value in series [10] (Normal rat kidney (NRK) cells) is recorded as “arrested in G1”. In addition, the “toxicity in normal cells” value in [10] is given as “no toxic effects”. Moreover, the “suppression of DnaJ-like proteins” value in series [11] is reported as “did not lead to the suppression”. For the same compound, the “outcome of treatment of virus-infected ornamental plants” value in series [4] is “positive results”.

Consider `O=C(O)CN(CCOCCOCCN(CC(=O)O)CC(=O)O)CC(=O)O` [EGTA], for which the “viral integrity, measured by release of reverse transcriptase” value in the series with mammalian retroviruses is given as “partial disintegration of viral membranes”. Besides, the viral integrity result in the series on Mammalian rotaviruses was “partial disintegration of the viral membranes”.

In the case of `NC(=O)c1cccnc1` [Nicotinamide], the “effect on cell growth or apoptosis” value in series [6] (at 48h) is “no effect”. Also, the morphology result in series [6] is given as “flatten”.

`NC(=O)c1ncn([C@@H]2O[C@H](CO)[C@@H](O)[C@H]2O)n1` [Ribavirin]: the use against virus entry in series [12] (tomato and tobacco plants) is given as “successfully used”. Moreover, in series [12] (tomato versus tobacco), the “host in which most efficient” value is listed as “most efficient in tomato plants”.
